Data from US20090227546A1, “PHARMACEUTICAL COMPOSITION OF DROSPIRENONE AND ETHYNYLESTRADIOL” (Laboratories Liconse, S.A., priority 2004, published 2009).

Assays:
[1] = Dissolution of drospirenone in methanol as granulation solvent; assay type: physicochemical
Experimental: About 16.00 ml of the dichloromethane/methanol solution at about a 6:1 ratio were placed in a stainless steel stirring apparatus. Next, about 0.0306 g of ethynylestradiol, non-micronized with a particle size no less than about 50 μm (addition of an excess of about 2% was foreseen to make up for losses during the process), were added under constant stirring. The mixture was shaken/stirred until completely dissolved. About 3.0600 g of drospirenone, non-micronized with a particle size no less than about 50 μm (addition of an excess of about 2% was foreseen to make up for losses during the process), were added under constant stirring until completely dissolved. Once dissolved, about 3.4000 g of polyvinylpyrrolidone K-30 were added with stirring until completely dissolved.
Only about 16 ml methanol was used in this example, which compares to substantially the same volume as the about 16 ml methylene chloride/methanol (about 6:1) used in example 1. […] Recall that in example 1 drospirenone was completely dissolved. Again, the process was conducted in accordance with example 1, including the step of “Granulation—Drying” where a planetary-type mixer was used and the mixture kneaded. The name of the final batch granulated: LPDIMet-16 ml.
In an extra experiment related to this Example 2, in the step “Dissolution of the active ingredients and binder” methanol was added until complete dissolution. […]

[2] = Dissolution profile of crystalline drospirenone tablets in acidic medium (USP 27 apparatus 2); assay type: physicochemical; details: HCl 0.1 N, regardless of the size of the particle, FIG. 16
Experimental: The dissolution profiles were obtained from tablets containing drospirenone in a crystalline state with different sized particles, using a dissolution apparatus designated in the U.S. Pharmacopoeia, Edition 27, apparatus 2, at 50 rpm and 900 ml of lauryl sulfate 0.07% in a strongly acidic medium, HCl 0.1 N, thermostatized at 37° C.

SMILES: C[C@]12CCC(=O)C=C1[C@@H]1C[C@@H]1[C@H]1[C@@H]3[C@@H]4C[C@@H]4[C@@]4(CCC(=O)O4)[C@@]3(C)CC[C@@H]12 [drospirenone, 6β,7β,15β,16β-dimethylene-3-oxo-17α-pregn-4-ene-21,17-carbolactone]
- amount of methanol required for complete dissolution ([1]; about 3.06 g drospirenone and about 0.0306 g ethynylestradiol): about 154.3 ml
- dissolution of drospirenone in about 16 ml methanol ([1]; about 3.06 g drospirenone, methanol only): not enough for the total dissolution
- stability of drospirenone in an acidic medium [2]: instability
